Results as given in US7244740B2, “Imidazo-pyridine derivatives for use in the treatment of herpes viral infection” (SmithKline Beecham Corporation, priority 2001, dated 2007).

Test system: HSV-1
Test: HSV-1 replication in Vero 76 cells, DNA hybridization capture assay
Type: cell-based, herpes simplex virus 1
Settings: Human alphaherpesvirus 1; HSV-1 infected Vero 76 cells, MOI=0.001, 40–48 hours incubation, viral DNA detected by hybridization/chemiluminescence
Experimental: Vero 76 cells were maintained in MEM with Earle's salts, L-glutamine, 8% FBS (Hyclone, A-1111-L) and 100 units/mL Penicillin-100 μg/mL Streptomycin. For assay conditions, FBS was reduced to 2%. Cells are seeded into 96-well tissue culture plates at a density of 5×10^4 cells/well after being incubated for 45 min at 37° C. in the presence of HSV-1 or HSV-2 (MOI=0.001). Test compounds are added to the wells and the plates are incubated at 37° C. for 40–48 hours. Cell lysates are prepared as follows: media was removed and replaced with 150 μL/well 0.2 N NaOH with 1% Igepal CA 630 or NP-40. Plates were incubated up to 14 days at room temperature in a humidified chamber to prevent evaporation.
For the detection probe, a gel-purified, digoxigenin-labeled, 710-bp PCR fragment of the HSV UL-15 sequence was utilized. PCR conditions included 0.5 μM primers, 180 μM dTTP, 20 μM dUTP-digoxigenin (Boehringer Mannheim 1558706), 200 μM each of dATP, dCTP, and dGTP, 1×PCR Buffer II (Perkin Elmer), 2.5 mM MgCl2, 0.025 units/μL of AmpliTaq Gold polymerase (Perkin Elmer), and 5 ng of gel-purified HSV DNA per 100 μL Extension conditions were 10 min at 95° C., followed by 30 cycles of 95° C. for 1 min, 55° C. for 30 sec, and 72° C. for 2 min. The amplification was completed with a 10-min incubation at 72° C. Primers were selected to amplify a 728 bp probe spanning a section of the HSV1 UL15 open reading frame (nucleotides 249–977). Single-stranded transcripts were purified with Promega M13 Wizard kits. The final product was mixed 1:1 with a mixture of 6 M GuSCN, 100 mM EDTA and 200 μg/mL herring sperm DNA and stored at 4° C.
The capture DNA plasmid (HSV UL13 region in pUC) was linearized by cutting with Xba I, denatured for 15 min at 95° C. and diluted immediately into Reacti-Bind DNA Coating Solution (Pierce, 17250, diluted 1:1 with TE buffer, pH 8) at 1 ng/μL 75 μL/well were added to Corning (#3922 or 9690) white 96-well plates and incubated at room temperature for at least 4 hrs before washing twice with 300 μL/well 0.2×SSC/0.05% Tween-20 (SSC/T buffer). The plates were then incubated overnight at room temperature with 150 μL/well 0.2 N NaOH, 1% IGEPAL and 10 μg/mL herring sperm DNA.
Twenty-seven (27) μL of cell lysate was combined with […] of hybridization solution (final concentration: 3M GuSCN, 50 mM EDTA, 100 μg/ml salmon sperm DNA, 5× Denhardt's solution, 0.25×APE, and 5 ng of the digoxigenin-labeled detection probe). APE is 1.5 M NH4-acetate, 0.15 M ammonium phosphate monobasic, and 5 mM EDTA adjusted to pH 6.0. Mineral oil (50 μL) was added to prevent evaporation. The hybridization plates were incubated at 95° C. for 10 minutes to denature the DNA, then incubated at 42° C. overnight. The wells were washed 6× with 300 μL/well SSC/T buffer then incubated with […] anti-digoxigenin-HRP-conjugated antibody (Boehringer Mannheim 1207733, 1:5000 in TE) for 30 min at room temperature. The wells were washed 6× with 300 μL/well with PBS/0.05% Tween-20 before 75 μL/well SuperSignal LBA substrate (Pierce) was added. The plates were incubated at room temperature for 30 minutes and chemiluminescence was measured in a Wallac Victor reader.

Row | Structure (SMILES) | IC50
1 | COc1cccc(-c2nc3c(Cl)cccn3c2-c2ccnc(Nc3ccccc3)n2)c1 [Example 1, 4-[8-Chloro-2-(3-methoxyphenyl)imidazo[1,2-α]pyridin-3-yl]-N-phenylpyrimidin-2-amine] | 1.46 µM
2 | COc1cccc(-c2nc3c(NC4CCCC4)cccn3c2-c2ccnc(NC3CCCC3)n2)c1 [Example 2, N-Cyclopentyl-3-[2-(cyclopentylamino)-4-pyrimidinyl]-2-(3-methoxyphenyl)imidazo[1,2-α]pyridin-8-amine] | 0.35 µM
3 | Cc1ccc(-c2nc3c(Cl)cccn3c2-c2ccnc(Nc3ccccc3)n2)cc1 [Example 3, 4-[8-Chloro-2-(4-methylphenyl)imidazo[1,2-α]pyridin-3-yl]-N-phenylpyrimidin-2-amine] | 3.52 µM
4 | Cc1ccc(-c2nc3c(NC4CCCC4)cccn3c2-c2ccnc(Nc3ccccc3)n2)cc1 [Example 4, 3-(2-Anilino-4-pyrimidinyl)-N-cyclopentyl-2-(4-methylphenyl)imidazo[1,2-α]pyridin-8-amine] | 3.54 µM
5 | O=[N+]([O-])c1cccc(-c2nc3c(Cl)cccn3c2-c2ccnc(Nc3ccc(F)cc3)n2)c1 [Example 5, 4-[8-Chloro-2-(3-nitrophenyl)imidazo[1,2-α]pyridin-3-yl]-N-(4-fluorophenyl)pyrimidin-2-amine] | 2.23 µM
